In patent publication US6548494B1, “Tricyclic inhibitors of poly(ADP-ribose) polymerases” (Agouron Pharmaceuticals, Inc., priority 1999, dated 2003):
Values joined by “and” are separate entries in the source; they are usually repeats but may differ in a detail not shown here. Equal entries are not always repeated.

Target: purified PARP protein (Homo sapiens, UniProt P09874)
Assay: PARP enzyme inhibition assay
Type: biochemical
Details: 20 nM purified PARP (5 nM for tight-binding inhibitors), 500 μM NAD+, 25° C.; several values in one cell = repeat determinations; read-out: Inhibition Constant Ki

purified PARP protein, sequence (P09874 whole entry): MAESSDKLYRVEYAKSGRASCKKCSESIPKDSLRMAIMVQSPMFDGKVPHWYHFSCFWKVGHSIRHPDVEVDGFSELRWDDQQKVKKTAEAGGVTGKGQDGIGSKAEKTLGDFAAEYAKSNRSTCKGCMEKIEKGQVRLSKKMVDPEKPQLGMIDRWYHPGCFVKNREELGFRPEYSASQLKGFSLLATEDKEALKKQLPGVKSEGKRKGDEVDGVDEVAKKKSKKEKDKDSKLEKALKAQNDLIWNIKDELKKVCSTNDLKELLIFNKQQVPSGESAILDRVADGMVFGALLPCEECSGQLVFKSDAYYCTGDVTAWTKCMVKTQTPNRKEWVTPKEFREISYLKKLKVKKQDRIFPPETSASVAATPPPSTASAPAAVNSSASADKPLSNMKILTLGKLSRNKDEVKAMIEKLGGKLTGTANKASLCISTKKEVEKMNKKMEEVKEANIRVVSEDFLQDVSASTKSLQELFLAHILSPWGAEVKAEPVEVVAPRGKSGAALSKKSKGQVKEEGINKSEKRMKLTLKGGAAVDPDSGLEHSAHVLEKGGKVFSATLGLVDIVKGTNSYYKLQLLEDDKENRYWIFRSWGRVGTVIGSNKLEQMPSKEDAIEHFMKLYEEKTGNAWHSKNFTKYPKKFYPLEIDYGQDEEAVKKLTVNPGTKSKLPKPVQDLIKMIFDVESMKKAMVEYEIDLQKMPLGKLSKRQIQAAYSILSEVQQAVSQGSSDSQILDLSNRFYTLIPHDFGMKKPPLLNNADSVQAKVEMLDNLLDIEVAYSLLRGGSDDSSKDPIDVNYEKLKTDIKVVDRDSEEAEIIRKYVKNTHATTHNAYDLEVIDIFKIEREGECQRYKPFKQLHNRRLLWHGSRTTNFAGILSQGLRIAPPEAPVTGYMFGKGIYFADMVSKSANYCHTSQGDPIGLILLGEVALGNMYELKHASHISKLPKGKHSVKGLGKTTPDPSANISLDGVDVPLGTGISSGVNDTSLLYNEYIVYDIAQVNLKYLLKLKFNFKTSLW

Ki | Compound
6.8 nM | CN(Cc1ccccc1)Cc1ccc(-c2nc3cccc4c3n2CCNC4=O)cc1 [Example 199, 1-[4-(Benzyl-methyl-amino-methyl)-phenyl]-8,9-dihydro-7H-2,7,9a-triaza-benzo[cd]azulen-6-one]
5.8 nM | O=C1NCCn2c(-c3ccc(CNCCCc4ccccc4)cc3)nc3cccc1c32 [Example 201, 1-{4-[(3-Phenyl-propylamino)-methyl]-phenyl}-8,9-dihydro-7H-2,7,9a-triaza-benzo[cd]azulen-6-one]
3.2 nM | CN(CCc1ccccn1)Cc1ccc(-c2nc3cccc4c3n2CCNC4=O)cc1 [Example 202, 1-(4-{[Methyl-(2-pyridin-2-yl-ethyl)-amino]-methyl}-phenyl)-8,9-dihydro-7H-2,7,9a-triaza-benzo[cd]azulen-6-one]
7.9 nM | O=C1NCCn2c(-c3ccc(CNCCc4ccccn4)cc3)nc3cccc1c32 [Example 204, 1-{4-[(2-Pyridin-2-yl-ethylamino)-methyl]-phenyl}-8,9-dihydro-7H-2,7,9a-triaza-benzo[cd]azulen-6-one]
7.4 nM | O=C1NCCn2c(-c3ccc(Cn4ccnc4)cc3)nc3cccc1c32 [Example 213, 1-(4-Imidazol-1-ylmethyl-phenyl)-8,9-dihydro-7H-2,7,9a-triaza-benzo[cd]azulen-6-one]
11 nM | CC1(C)CC2CC(C)(CN2Cc2ccc(-c3nc4cccc5c4n3CCNC5=O)cc2)C1 (stereo not drawn) [Example 215, 1-[4-(1,3,3-Trimethyl-6-aza-bicyclo[3.2.1]oct-6-ylmethyl)-phenyl]-8,9-dihydro-7H-2,7,9a-triaza-benzo[cd]azulen-6-one]
17 nM | CC(C)(C)OC(=O)[C@H]1CCCN1Cc1ccc(-c2nc3cccc4c3n2CCNC4=O)cc1 [Example 218, (R)-1-[4-(6-oxo-6,7,8,9-Tetrahydro-2,7,9a-triaza-benzo[cd]azulen-1-yl)-benzyl]-pyrrolidine-2-carboxylic Acid tert-Butyl Ester]
5 nM | C[C@H]1Cn2c(-c3ccc(CN(C)C)cc3)nc3cccc(c32)C(=O)N1 [Example 221, (S)-1-(4-Dimethylaminomethyl-phenyl)-8-methyl-8,9-dihydro-7H-2,7,9a-triaza-benzo[cd]azulen-6-one]
10 nM | C[C@H]1Cn2c(-c3ccc(CO)cc3)nc3cccc(c32)C(=O)N1 [Example 221a, (S)-1-(4-Hydroxymethyl-phenyl)-8-methyl-8,9-dihydro-7H-2,7,9a-triaza-benzo[cd]azulen-6-one]
2 nM and 2.3 nM and 3.5 nM | CNCc1ccc(-c2nc3cccc4c3n2C[C@H](C)NC4=O)cc1 [Example 222, (S)-8-Methyl-1-(4-methylaminomethyl-phenyl)-8,9-dihydro-7H-2,7,9a-triaza-benzo[cd]azulen-6-one]
2.2 nM | N#Cc1ccc(-c2nc3cccc4c3n2CCNC4=O)cc1 [Example 227, 4-(6-oxo-6,7,8,9-Tetrahydro-2,7,9a-triaza-benzo[cd]azulen-1-y)-benzonitrile]
4.6 nM | CC(C)CC(O)c1ccc(-c2nc3cccc4c3n2CCNC4=O)cc1 (stereo not drawn) [Example 228, 1-[4-(1-Hydroxy-3-methyl-butyl)-phenyl]-8,9-dihydro-7H-2,7,9a-triaza-benzo[cd]azulen-6-one]
6.9 nM | CC(C)CC(c1ccc(-c2nc3cccc4c3n2CCNC4=O)cc1)N(C)C (stereo not drawn) [Example 231, 1-[4-(Dimethylamino-methyl-butyl)-phenyl]-8,9-dihydro-7H-2,7,9a-triaza-benzo[cd]azulen-6-one]
8.7 nM | C[C@H]1Cn2c(-c3ccc(Cn4cccc4)cc3)nc3cccc(c32)C(=O)N1 [Example 234, (S)-8-Methyl-1-(4-pyrrol-1-ylmethyl-phenyl)-8,9-dihydro-7H -2,7,9a-triaza-benzo[cd]azulen-6-one]

Second part, the compound before the results:

Compound | Ki
O=C1NCCn2c(-c3ccc(CN4CCc5ccccc5C4)cc3)nc3cccc1c32 [Example 198, 1-[4-(3,4-Dihydro-1H-isoquinolin-2-ylmethyl)-phenyl]-8,9-dihydro-7H-2,7,9a-triaza-benzo[cd]azulen-6-one] | 7.9 nM
CC(CNCc1ccc(-c2nc3cccc4c3n2CCNC4=O)cc1)c1ccccc1 (stereo not drawn) [Example 200, 1-{4-[(2-Phenyl-propylamino)-methyl]-phenyl}-8,9-dihydro-7H-2,7,9a-triaza-benzo[cd]azulen-6-one] | 6 nM
CN(CCc1ccncc1)Cc1ccc(-c2nc3cccc4c3n2CCNC4=O)cc1 [Example 205, 1-(4-{[Methyl-(2-pyridin-4-yl-ethyl)-amino]-methyl}-phenyl)-8,9-dihydro-7H-2,7,9a-triaza-benzo[cd]azulen-6-one] | 4.7 nM
O=C1NCCn2c(-c3ccc(CNCCc4ccncc4)cc3)nc3cccc1c32 [Example 206, 1-{4-[(2-Pyridin-4-yl-ethylamino)-methyl]-phenyl}-8,9-dihydro-7H-2,7,9a-triaza-benzo[cd]azulen-6-one] | 6.4 nM
CC1CCC(C)N1Cc1ccc(-c2nc3cccc4c3n2CCNC4=O)cc1 (stereo not drawn) [Example 214, 1-[4-(2,5-Dimethyl-pyrrolidin-1-ylmethyl)-phenyl]-8,9-dihydro-7H-2,7,9a-triaza-benzo[cd]azulen-6-one] | 8.3 nM
COC[C@@H]1CC[C@@H](COC)N1Cc1ccc(-c2nc3cccc4c3n2CCNC4=O)cc1 [Example 216, 1-[4-((2S,5S)-2,5-bis-Methoxymethyl-pyrrolidin-1-ylmethyl)-phenyl]-8,9-dihydro-7H-2,7,9a-triaza-benzo[cd]azulen-6-one] | 27 nM
O=C1NCCn2c(-c3ccc(CN4CCC[C@@H]4C(=O)OCc4ccccc4)cc3)nc3cccc1c32 [Example 217, (R)-1-[4-(6-oxo-6,7,8,9-Tetrahydro-2,7,9a-triaza-benzo[cd]azulen-1-yl)-benzyl]-pyrrolidine-2-carboxylic Acid Benzyl Ester] | 26 nM
CC(C)(C)OC(=O)NC1CCN(Cc2ccc(-c3nc4cccc5c4n3CCNC5=O)cc2)C1 (stereo not drawn) [Example 219, {1-[4-(6-oxo-6,7,8,9-Tetrahydro-2,7,9a-triaza-benzo[cd]azulen-1-yl)-benzyl]-pyrrolidin-3-yl}-carbamic Acid tert-Butyl Ester] | 11 nM
O=C1NCCn2c(-c3ccc(Cn4cccc4)cc3)nc3cccc1c32 [Example 220, 1-(4-Pyrrol-1-ylmethyl-phenyl)-8,9-dihydro-7H-2,7,9a-triaza-benzo[cd]azulen-6-one] | 4 nM
CC(C)CC(c1ccc(-c2nc3cccc4c3n2CCNC4=O)cc1)N1CC=CC1 (stereo not drawn) [Example 229, 1-{4-[1-(2,5-Dihydro-pyrrol-1-yl)-3-methyl-butyl]-phenyl}-8,9-dihydro-7H-2,7,9a-triaza-benzo[cd]azulen-6-one] | 5.3 nM and 6.8 nM
CC(C)CC(c1ccc(-c2nc3cccc4c3n2CCNC4=O)cc1)N1CCCC1 (stereo not drawn) [Example 230, 1-[4-(3-Methyl-1-pyrrolidin-1-yl-butyl)-phenyl]-8,9-dihydro-7H-2,7,9a-triaza-benzo[cd]azulen-6-one] | 5.3 nM
C[C@@H]1Cn2c(-c3ccc(Cl)cc3)nc3cccc(c32)C(=O)N1 [Example 236, (R)-1-(4-Chloro-phenyl)-8-methyl-8,9-dihydro-7H-2,7,9a-triaza-benzo[cd]azulen-6-one] | 113 nM
O=C1N[C@@H](CO)Cn2c(-c3ccc(Cl)cc3)nc3cccc1c32 [Example 237, (R)-1-(4-Chloro-phenyl)-8-hydroxymethyl-8,9-dihydro-7H-2,7,9a-triaza-benzo[cd]azulen-6-one] | 5 nM and 6 nM
